Values of other authors as cited in PubChem BioAssay AID1259409 (Chemical Carcinogenesis Research Information System (CCRIS), 2018).

Test system: rodent chemically induced tumor inhibition, incidence and multiplicity
Assay: CCRIS tumor inhibitor studies

## Nc1nc(N)c2nc(CNc3ccc(C(=O)N[C@@H](CCC(=O)O)C(=O)O)cc3)cnc2n1
Carcinogen: URETHANE, 51-79-6, Dose [Inhibitor]: 0.25 UG/G BW IN DISTILLED WATER 1/D FOR 3 D FOLLOWED BY 0.5 UG/G BW ONCE ADMINISTERED AT SAME TIME AS CARCINOGEN TREATME, Route [Inhibitor]: INTRAPERITONEAL, Species: MOUSE, Strain/Sex: SWR/MALE, Target Tissue: Type of Lesion: LUNG: ADENOMA, Dose [Carcinogen]: 0.5 MG/G BW IN DISTILLED WATER ONCE AT 13 WK OF AGE, Promoter: NONE USED
  tumour outcome (control, treated, inhibition, significance): 90%, 74%, 18%, not significant
Carcinogen: URETHANE, 51-79-6, Dose [Inhibitor]: 0.25 UG/G BW IN DISTILLED WATER 1/D FOR 3 D FOLLOWED BY 0.5 UG/G BW ONCE ADMINISTERED AT SAME TIME AS CARCINOGEN TREATME, Route [Inhibitor]: INTRAPERITONEAL, Species: MOUSE, Strain/Sex: SWR/MALE, Target Tissue: Type of Lesion: LUNG: ADENOMA, Dose [Carcinogen]: 0.5 MG/G BW IN DISTILLED WATER ONCE AT 15 WK OF AGE, Promoter: NONE USED
  tumour outcome (control, treated, inhibition, significance): 82%, 90%, -10%, not significant

## CCOC(=O)C(C)(C)Br
Carcinogen: N-METHYL-N'-NITRO-N-NITROSOGUANIDINE, 70-25-7, Dose [Inhibitor]: 0, 42 MG/KG TWICE WITHIN 24 HR THEN 105 MG/KG 1/2 WK FOR DURATION OF STUDY BEGINNING 1 WK POST LAST CARCINOGEN DOSE (STU, Route [Inhibitor]: INTRAPERITONEAL, Species: RAT, Strain/Sex: SHR/MALE, Target Tissue: Type of Lesion: STOMACH: ADENOCARCINOMA, Dose [Carcinogen]: 25 UG/ML IN DRINKING WATER FOR 25 WK, Promoter: NONE USED
  tumour outcome (control, treated, inhibition, significance): 10/19 (53%), 2/17 (12%), 77%, p<0.05
Carcinogen: N-METHYL-N'-NITRO-N-NITROSOGUANIDINE, 70-25-7, Dose [Inhibitor]: 0, 42 MG/KG TWICE WITHIN 24 HR THEN 105 MG/KG 1/2 WK FOR DURATION OF STUDY BEGINNING 1 WK POST LAST CARCINOGEN DOSE (STU, Route [Inhibitor]: INTRAPERITONEAL, Species: RAT, Strain/Sex: WISTAR/MALE, Target Tissue: Type of Lesion: STOMACH: ADENOCARCINOMA, Dose [Carcinogen]: 25 UG/ML IN DRINKING WATER FOR 25 WK, Promoter: NONE USED
  tumour outcome (control, treated, inhibition, significance): 2/18 (11%), 0/17 (0%), 100%, not significant

## CC(C)C1CCC(O)CC1 (centres undefined)
Carcinogen: 7,12-DIMETHYLBENZ[A]ANTHRACENE, 57-97-6, Dose [Inhibitor]: 0, 12 NMOL PER REPEATED APPLICATION FOR 20 WK (STUDY DURATION: 20 WK), Route [Inhibitor]: DERMAL, Species: MOUSE, Strain/Sex: CD-1/FEMALE, Target Tissue: Type of Lesion: SKIN: TUMOR, Dose [Carcinogen]: 100 UG ONCE, Promoter: OKADAIC ACID, 78111-17-8
  tumour outcome (control, treated, inhibition, significance): 87%, 50%, 43%, not calculated

## C[C@]12CCC(=O)C(O)=C1CC[C@@H]1[C@@H]2CC[C@]2(C)C(=O)CC[C@@H]12
Carcinogen: METHYLNITROSOUREA, 684-93-5, Dose [Inhibitor]: 0, 6 MG/D 7 D/WK FOR DURATION OF STUDY BEGINNING 1 WK PRIOR TO CARCINOGEN DOSE (STUDY DURATION: 107 D), Route [Inhibitor]: GAVAGE, Species: RAT, Strain/Sex: SPRAGUE-DAWLEY/FEMALE, Target Tissue: Type of Lesion: MAMMARY GLAND: TUMOR, Dose [Carcinogen]: 50 MG/KG BW ONCE, Promoter: NONE USED
  tumour outcome (control, treated, inhibition, significance): 100%, 95%, 5%, not significant
Carcinogen: METHYLNITROSOUREA, 684-93-5, Dose [Inhibitor]: 0, 15 MG/D 7 D/WK FOR DURATION OF STUDY BEGINNING 1 WK PRIOR TO CARCINOGEN DOSE (STUDY DURATION: 107 D), Route [Inhibitor]: GAVAGE, Species: RAT, Strain/Sex: SPRAGUE-DAWLEY/FEMALE, Target Tissue: Type of Lesion: MAMMARY GLAND: TUMOR, Dose [Carcinogen]: 50 MG/KG BW ONCE, Promoter: NONE USED
  tumour outcome (control, treated, inhibition, significance): 100%, 100%, 0%, not significant

## CC1=C[C@H]2[C@@]3(O)[C@H](C)C[C@]4(OC(=O)Cc5ccccc5)C([C@@H]3C=C(CO)C[C@]2(O)C1=O)C4(C)C (some centres undefined)
Carcinogen: 7,12-DIMETHYLBENZ[A]ANTHRACENE, 57-97-6, Dose [Inhibitor]: 0, 2.14 NMOL 15 D POST INITIATION DOSE FOLLOWED BY 2.14 NMOL 2/WK DURING WK 3-22 APPLIED 15 MIN PRIOR TO EACH PROMOTION, Route [Inhibitor]: DERMAL, Species: MOUSE, Strain/Sex: CD-1/FEMALE, Target Tissue: Type of Lesion: SKIN: PAPILLOMA, Dose [Carcinogen]: 20 NMOL IN 200 µL ACETONE ONCE
  tumour outcome (control, treated, inhibition, significance): 100%, 82%, 18%, not calculated
Carcinogen: 7,12-DIMETHYLBENZ[A]ANTHRACENE, 57-97-6, Dose [Inhibitor]: 0, 2.14 NMOL 15 D POST INITIATION DOSE FOLLOWED BY 2.14 PMOL 2/WK DURING WK 3-22 APPLIED 15 MIN PRIOR TO EACH PROMOTION, Route [Inhibitor]: DERMAL, Species: MOUSE, Strain/Sex: CD-1/FEMALE, Target Tissue: Type of Lesion: SKIN: PAPILLOMA, Dose [Carcinogen]: 20 NMOL IN 200 µL ACETONE ONCE
  tumour outcome (control, treated, inhibition, significance): 100%, 97%, 3%, not calculated
Carcinogen: 7,12-DIMETHYLBENZ[A]ANTHRACENE, 57-97-6, Dose [Inhibitor]: 0, 2.14 NMOL 15 D POST INITIATION DOSE FOLLOWED BY 21.4 NMOL 2/WK DURING WK 3-22 APPLIED 15 MIN PRIOR TO EACH PROMOTION, Route [Inhibitor]: DERMAL, Species: MOUSE, Strain/Sex: CD-1/FEMALE, Target Tissue: Type of Lesion: SKIN: PAPILLOMA, Dose [Carcinogen]: 20 NMOL IN 200 µL ACETONE ONCE
  tumour outcome (control, treated, inhibition, significance): 100%, 53%, 47%, not calculated
Carcinogen: 7,12-DIMETHYLBENZ[A]ANTHRACENE, 57-97-6, Dose [Inhibitor]: 0, 2.14 NMOL 15 D POST INITIATION DOSE FOLLOWED BY 21.4 PMOL 2/WK DURING WK 3-22 APPLIED 15 MIN PRIOR TO EACH PROMOTION, Route [Inhibitor]: DERMAL, Species: MOUSE, Strain/Sex: CD-1/FEMALE, Target Tissue: Type of Lesion: SKIN: PAPILLOMA, Dose [Carcinogen]: 20 NMOL IN 200 µL ACETONE ONCE
  tumour outcome (control, treated, inhibition, significance): 100%, 100%, 0%, not significant
Carcinogen: 7,12-DIMETHYLBENZ[A]ANTHRACENE, 57-97-6, Dose [Inhibitor]: 0, 2.14 NMOL 15 D POST INITIATION DOSE FOLLOWED BY 214 PMOL 2/WK DURING WK 3-22 APPLIED 15 MIN PRIOR TO EACH PROMOTION D, Route [Inhibitor]: DERMAL, Species: MOUSE, Strain/Sex: CD-1/FEMALE, Target Tissue: Type of Lesion: SKIN: PAPILLOMA, Dose [Carcinogen]: 20 NMOL IN 200 µL ACETONE ONCE
  tumour outcome (control, treated, inhibition, significance): 100%, 95%, 5%, not calculated
Carcinogen: 7,12-DIMETHYLBENZ[A]ANTHRACENE, 57-97-6, Dose [Inhibitor]: 2.14 NMOL BEGINNING 15 D POST INITIATION DOSE AND EVERY THURS. AS WELL AS 21.4 NMOL 15 MIN PRIOR TO EACH PROMOTION DOSE, Route [Inhibitor]: DERMAL, Species: MOUSE, Strain/Sex: CD-1/FEMALE, Target Tissue: Type of Lesion: SKIN: PAPILLOMA, Dose [Carcinogen]: 20 NMOL IN 200 µL ACETONE ONCE
  tumour outcome (control, treated, inhibition, significance): 100%, 65%, 35%, not calculated
Carcinogen: 7,12-DIMETHYLBENZ[A]ANTHRACENE, 57-97-6, Dose [Inhibitor]: 2.14 NMOL BEGINNING 15 D POST INITIATION DOSE AND EVERY WED. AS WELL AS 21.4 NMOL 15 MIN PRIOR TO PROMOTION DOSE ON FRI., Route [Inhibitor]: DERMAL, Species: MOUSE, Strain/Sex: CD-1/FEMALE, Target Tissue: Type of Lesion: SKIN: PAPILLOMA, Dose [Carcinogen]: 20 NMOL IN 200 µL ACETONE ONCE
  tumour outcome (control, treated, inhibition, significance): 98%, 50%, 49%, not calculated
